The supplement of paper PMC10307832

How the values were obtained:
Assay in all cases: relative viability (nuclei count vs DMSO), 5 days (fraction); higher = more cells survive
[1] = system: A-427
Outline: (§1)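 Each reported value is a median over duplicate plates. It expresses relative viability: treated-well nuclei count divided by vehicle-well nuclei count. Lung cancer cell lines in 1536-well plates were dosed by pin tool a day after seeding, alone with one drug or with a fixed anchor-drug dose plus five library-drug doses (not always all listed) in √10 steps, and nuclei were counted after 5 days.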

[2] = system: HCC-15
Outline: as §1

[3] = system: HCC-78
Outline: as §1

[4] = system: HOP-62
Outline: as §1

[5] = system: LC-2-ad
Outline: as §1

[6] = system: LXF-289
Outline: as §1

[7] = system: NCI-H1734
Outline: as §1

[8] = system: NCI-H1755
Outline: as §1

[9] = system: NCI-H1792
Outline: as §1

[10] = system: NCI-H1915
Outline: as §1

[11] = system: NCI-H1975
Outline: as §1

[12] = system: NCI-H2126
Outline: as §1

[13] = system: NCI-H2228
Outline: as §1

[14] = system: NCI-H2342
Outline: as §1

[15] = system: NCI-H2347
Outline: as §1

[16] = system: NCI-H358
Outline: as §1

[17] = system: NCI-H522
Outline: as §1

[18] = system: NCI-H647
Outline: as §1

[19] = system: PC-3 [JPC-3]
Outline: as §1

[20] = system: RERF-LC-KJ
Outline: as §1

[21] = system: SK-LU-1
Outline: as §1

[22] = system: SW 1573
Outline: as §1

`COc1nc(C)cnc1NS(=O)(=O)c1cccnc1-c1ccc(-c2nnco2)cc1` [Zibotentan] + Nc1nc2[nH]cc(CCc3ccc(C(=O)N[C@@H](CCC(=O)O)C(=O)O)cc3)c2c(=O)[nH]1 [Pemetrexed] (partner 0.2 µM) gave a relative viability ([1]; first compound 0.08 µM) of 1.18, a relative viability ([1]; first compound 0.253 µM) of 1.01 and a relative viability ([1]; first compound 0.8 µM) of 0.95. The relative viability ([1]; first compound 2.53 µM) was 1.07, the relative viability ([2]; first compound 0.08 µM) was 0.221 and the relative viability ([2]; first compound 0.253 µM) was 0.22. The relative viability ([2]; first compound 0.8 µM) was 0.217, the relative viability ([2]; first compound 2.53 µM) was 0.227 and the relative viability ([3]; first compound 0.08 µM) was 0.876. The relative viability ([3]; first compound 0.253 µM) was 0.892, the relative viability ([3]; first compound 0.8 µM) was 0.877 and the relative viability ([3]; first compound 2.53 µM) was 0.889. For the same compound, the relative viability ([4]; first compound 0.08 µM) was 0.319, the relative viability ([4]; first compound 0.253 µM) was 0.408 and the relative viability ([4]; first compound 0.8 µM) was 0.281. For the same compound, the relative viability ([4]; first compound 2.53 µM) was 0.352, the relative viability ([5]; first compound 0.08 µM) was 0.251 and the relative viability ([5]; first compound 0.253 µM) was 0.286. It also gave a relative viability ([5]; first compound 0.8 µM) of 0.27, a relative viability ([5]; first compound 2.53 µM) of 0.274 and a relative viability ([6]; first compound 0.08 µM) of 0.88. It also gave a relative viability ([6]; first compound 0.253 µM) of 0.936, a relative viability ([6]; first compound 0.8 µM) of 0.854 and a relative viability ([6]; first compound 2.53 µM) of 0.916. For the same compound, the relative viability ([7]; first compound 0.08 µM) was 0.404, the relative viability ([7]; first compound 0.253 µM) was 0.423 and the relative viability ([7]; first compound 0.8 µM) was 0.396. The relative viability ([7]; first compound 2.53 µM) was 0.44, the relative viability ([8]; first compound 0.08 µM) was 0.44 and the relative viability ([8]; first compound 0.253 µM) was 0.453. It also gave a relative viability ([8]; first compound 0.8 µM) of 0.383, a relative viability ([8]; first compound 2.53 µM) of 0.455 and a relative viability ([9]; first compound 0.08 µM) of 0.911. It also gave a relative viability ([9]; first compound 0.253 µM) of 0.662, a relative viability ([9]; first compound 0.8 µM) of 0.813 and a relative viability ([9]; first compound 2.53 µM) of 1.14. For the same compound, the relative viability ([10]; first compound 0.08 µM) was 0.477, the relative viability ([10]; first compound 0.253 µM) was 0.493 and the relative viability ([10]; first compound 0.8 µM) was 0.357. It also gave a relative viability ([10]; first compound 2.53 µM) of 0.526, a relative viability ([11]; first compound 0.08 µM) of 0.308 and a relative viability ([11]; first compound 0.253 µM) of 0.281. The relative viability ([11]; first compound 0.8 µM) was 0.289, the relative viability ([11]; first compound 2.53 µM) was 0.299 and the relative viability ([12]; first compound 0.08 µM) was 0.713. It also gave a relative viability ([12]; first compound 0.253 µM) of 0.657, a relative viability ([12]; first compound 0.8 µM) of 0.435 and a relative viability ([12]; first compound 2.53 µM) of 0.78. It also gave a relative viability ([13]; first compound 0.08 µM) of 0.323, a relative viability ([13]; first compound 0.253 µM) of 0.33 and a relative viability ([13]; first compound 0.8 µM) of 0.291. The relative viability ([13]; first compound 2.53 µM) was 0.346, the relative viability ([14]; first compound 0.08 µM) was 0.769 and the relative viability ([14]; first compound 0.253 µM) was 0.729. For the same compound, the relative viability ([14]; first compound 0.8 µM) was 0.761, the relative viability ([14]; first compound 2.53 µM) was 0.797 and the relative viability ([15]; first compound 0.08 µM) was 0.416. The relative viability ([15]; first compound 0.253 µM) was 0.463, the relative viability ([15]; first compound 0.8 µM) was 0.465 and the relative viability ([15]; first compound 2.53 µM) was 0.471. For the same compound, the relative viability ([16]; first compound 0.08 µM) was 0.189, the relative viability ([16]; first compound 0.253 µM) was 0.141 and the relative viability ([16]; first compound 2.53 µM) was 0.184. The relative viability ([17]; first compound 0.08 µM) was 0.909, the relative viability ([17]; first compound 0.253 µM) was 1.03 and the relative viability ([17]; first compound 0.8 µM) was 0.881. For the same compound, the relative viability ([17]; first compound 2.53 µM) was 0.758, the relative viability ([18]; first compound 0.08 µM) was 0.165 and the relative viability ([18]; first compound 0.253 µM) was 0.171. The relative viability ([18]; first compound 0.8 µM) was 0.181, the relative viability ([18]; first compound 2.53 µM) was 0.201 and the relative viability ([19]; first compound 0.08 µM) was 1.51. It also gave a relative viability ([19]; first compound 0.253 µM) of 0.972, a relative viability ([19]; first compound 0.8 µM) of 1.01 and a relative viability ([19]; first compound 2.53 µM) of 1.27. The relative viability ([20]; first compound 0.08 µM) was 0.5, the relative viability ([20]; first compound 0.253 µM) was 0.464 and the relative viability ([20]; first compound 0.8 µM) was 0.438. For the same compound, the relative viability ([20]; first compound 2.53 µM) was 0.481, the relative viability ([21]; first compound 0.08 µM) was 0.95 and the relative viability ([21]; first compound 0.253 µM) was 0.705. For the same compound, the relative viability ([21]; first compound 0.8 µM) was 1.01, the relative viability ([21]; first compound 2.53 µM) was 0.99 and the relative viability ([22]; first compound 0.08 µM) was 0.872. For the same compound, the relative viability ([22]; first compound 0.8 µM) was 0.783 and the relative viability ([22]; first compound 2.53 µM) was 0.823.
